Data set [1] can be described thus: AUC (0 to infinity) in rat. Format: ADME, organism-based. The note with it: plasma. On the set-up: time infinity; concentration or dose not given beside the values.
Data set [2] concerns Rattus norvegicus. The data set is described as follows: (§1) Volume of distribution at steady state in rat at 10 umol/kg, iv. Format: ADME, organism-based. The settings on record: in vivo.
Data set [3] is described as follows: AUC (0 to infinity) in dog. Format: ADME, organism-based, Canis lupus familiaris. On the set-up: time infinity; concentration or dose not given beside the values. The note with it: plasma.
The nature of data set [4]: Cytotoxic activity against human PBMC assessed as reduction in cell viability. Format: cell-based.
Data set [5] is described as follows: Oral bioavailability in dog. Format: ADME, organism-based, Canis lupus familiaris. The settings on record: in vivo.
Data set [6] can be described thus: Volume of distribution at steady state in dog at 5 umol/kg, iv. Format: ADME, organism-based, Canis lupus familiaris. The note with it: in vivo, read-out: Vdss.
A short description of data set [7]: Clearance in dog at 5 umol/kg, iv. Format: ADME, organism-based, Canis lupus familiaris. The settings on record: in vivo.
Data set [8] in a line: Cmax in rat. Format: ADME, organism-based. The note with it: in vivo.
Data set [9] can be described thus: Half life in dog at 5 umol/kg, iv. The note with it: in vivo. Format: ADME, organism-based, Canis lupus familiaris.
Data set [10] relates to Human immunodeficiency virus 1. The data set is described as follows: Antiviral activity against R5 tropic Human immunodeficiency virus 1 BAL infected in human PBMC cells assessed as reduction in viral replication by p24 detection based ELISA. Format: functional, organism-based.
Data set [11] in a line: Oral bioavailability in rat. Format: ADME, organism-based. The note with it: in vivo.
The nature of data set [12]: Cmax in dog. Format: ADME, organism-based, Canis lupus familiaris. The settings on record: in vivo.
Data set [13] has as its system Rattus norvegicus. The data set is described as follows: (§2) Half life in rat at 10 umol/kg, iv. The settings on record: in vivo. Format: ADME, organism-based.
Data set [14] is described as follows: Plasma protein binding in human plasma at 1 uM after 5 hrs by LC-MS/MS analysis. Format: ADME, cell-free. The note with it: read-out: PPB (converted).
Data set [15] in a line: as §1. The settings on record: in vivo, 10 umol/kg, read-out: Vdss. Format: ADME, organism-based.
Data set [16] in a line: Clearance in rat at 10 umol/kg, iv. Format: ADME, organism-based. The note with it: in vivo.
A short description of data set [17]: as §2. The note with it: in vivo, 10 umol/kg. Format: ADME, organism-based.

Bounds are passed on as bounds.

A word on the AUC(0-inf): it is total exposure, with the tail of the curve extrapolated. By Vdss is commonly meant the apparent volume that relates the amount in the body to the concentration in plasma or blood. What is called CC50 is the concentration that lowers cell viability or growth by half. For orientation: bioavailability means dose-corrected exposure relative to a reference, in per cent. The term clearance denotes the rate of elimination divided by the concentration. As usually defined, the Cmax is the peak of the concentration-time curve. Broadly, the half-life is the time in which the quantity being followed falls by half. For orientation: IC50 means the concentration that inhibits the measured activity by half. For the compound `COc1ccc(N(Cc2cccnc2)C2CCN([C@H](C)CCNC(=O)c3c(C)cc(Cl)nc3C)CC2)cc1`, the AUC(0-inf) in data set [1] came out at 4.83 µM·h; in [3], 2.73 µM·h. For the same compound, the Vdss in the data set on Rattus norvegicus [2] worked out at 50.5 L/kg. Moreover, in data set [4], the cytotoxic concentration (CC50) is greater than 37300 nM. For the same compound, the results for the bioavailability in data set [5] and in data set [11] were 37% and 23%, respectively. In data set [6], the Vd was determined as 26.7 L/kg. Further, the clearance in data set [7] was 23.3 mL/min/kg. In addition, the Cmax in [8] is 1330 nM; in data set [12], 1570 nM. Also, the half-life in data set [9] was 13.2 h. In addition, in data set [10], the IC50 is 18.9 nM. This compound also yielded a t1/2 in the data set on Rattus norvegicus [13] of 8.6 h. Moreover, the fraction unbound at 5 h, 1 µM in data set [14] is 0.07.
Consider `CC(CCNC(=O)c1c(Cl)cncc1Cl)N1CCC(N(Cc2cccc(C#N)c2)c2ccc(OC(F)(F)F)cc2)CC1` (centres undefined), for which the AUC(0-inf) amounted to 7.3 µM·h in data set [1] and 5.11 µM·h in [3]. Besides, the Vd in [15] was determined as 23.7 L/kg; in data set [6] it was 6 L/kg. Besides, the figures for the clearance in data set [16] and in data set [7] were 132 mL/min/kg and 15 mL/min/kg, respectively. The cytotoxic concentration (CC50) in data set [4] is 6000 nM. For the same compound, the bioavailability in data set [5] stood at 36%; in data set [11] it was 57%. Besides, the Cmax in data set [8] is 530 nM; in data set [12], 750 nM. Moreover, the half-life in [9] was 5.4 h; in data set [17], 5 h. In data set [10], the concentration for half-maximal inhibition (IC50) was found to be 2 nM. In [14], the fraction unbound at 5 h, 1 µM is less than 0.001.
For `CC(CCNC(=O)c1c(Cl)cncc1Cl)N1CCC(N(Cc2ccccc2)c2ccc(Oc3ccc(C(=O)O)cc3)cc2)CC1` (centres undefined), the area under the curve AUC(0-inf) in [1] was 9.07 µM·h; in [3], 14.5 µM·h. Further, the figures for the Vd in data set [15] and in [6] were 4.2 L/kg and 0.4 L/kg, respectively. The clearance in data set [16] worked out at 30 mL/min/kg; in data set [7] it was 5 mL/min/kg. Further, the 50% cytotoxic concentration (CC50) in data set [4] amounted to 22100 nM. Besides, the bioavailability amounted to 35% in data set [5] and 16% in [11]. Besides, the Cmax in [8] came out at 2790 nM; in data set [12], 11200 nM. Besides, the half-life in data set [9] is 1.5 h; in data set [17], 4.8 h. For the same compound, the IC50 in data set [10] was found to be 96 nM. Further, in data set [14], the fraction unbound at 5 h, 1 µM was less than 0.001.
As for `COc1ccc(N(Cc2cnccc2C)C2CCN([C@H](C)CCNC(=O)c3c(C)ccnc3Cl)CC2)cc1`, the results for the AUC(0-inf) in data set [1] and in [3] were 18.3 µM·h and 0.2 µM·h, respectively. In addition, the Vd stood at 15.4 L/kg in data set [15] and 10.3 L/kg in data set [6]. Further, the values for the clearance in data set [16] and in data set [7] were 58.7 mL/min/kg and 36.5 mL/min/kg, respectively. Besides, the 50% cytotoxic concentration (CC50) in data set [4] was greater than 37700 nM. In addition, the results for the bioavailability in data set [5] and in [11] were 4% and 70%, respectively. Further, the Cmax in data set [8] was 3110 nM; in [12], 150 nM. Moreover, the values for the half-life in data set [9] and in data set [17] were 3.3 h and 3 h, respectively. Also, the IC50 in [10] stood at 22.3 nM. For the same compound, the fraction unbound at 5 h, 1 µM in data set [14] is 0.12.

The values are drawn from ChEMBL document CHEMBL1926604, “Design and synthesis of pyridin-2-ylmethylaminopiperidin-1-ylbutyl amide CCR5 antagonists that are potent inhibitors of M-tropic (R5) HIV-1 replication” (Bioorg Med Chem Lett, 2011).
